Experimental data published in patent US20160289236A1, “Protein Kinase Inhibitors” (PHARMASCIENCE INC., priority 2013, published 2016).

Tests used:
[1] = biological target: T1, histidine tagged recombinant human full-length Bruton Agammaglobulinemia Tyrosine Kinase (Btk) (Homo sapiens, UniProt Q06187); test: Btk kinase inhibition assay, Method A (fluorescence polarization, KinEASE FP Fluorescein Green); type: biochemical; conditions: 10 μM ATP, 250 μM substrate, 60 minutes, Ki calculated from IC50 with Cheng-Prusoff equation
T1 construct: histidine tagged recombinant human full-length Bruton Agammaglobulinemia Tyrosine Kinase (Btk); His tag
T1 sequence (Q06187 whole entry): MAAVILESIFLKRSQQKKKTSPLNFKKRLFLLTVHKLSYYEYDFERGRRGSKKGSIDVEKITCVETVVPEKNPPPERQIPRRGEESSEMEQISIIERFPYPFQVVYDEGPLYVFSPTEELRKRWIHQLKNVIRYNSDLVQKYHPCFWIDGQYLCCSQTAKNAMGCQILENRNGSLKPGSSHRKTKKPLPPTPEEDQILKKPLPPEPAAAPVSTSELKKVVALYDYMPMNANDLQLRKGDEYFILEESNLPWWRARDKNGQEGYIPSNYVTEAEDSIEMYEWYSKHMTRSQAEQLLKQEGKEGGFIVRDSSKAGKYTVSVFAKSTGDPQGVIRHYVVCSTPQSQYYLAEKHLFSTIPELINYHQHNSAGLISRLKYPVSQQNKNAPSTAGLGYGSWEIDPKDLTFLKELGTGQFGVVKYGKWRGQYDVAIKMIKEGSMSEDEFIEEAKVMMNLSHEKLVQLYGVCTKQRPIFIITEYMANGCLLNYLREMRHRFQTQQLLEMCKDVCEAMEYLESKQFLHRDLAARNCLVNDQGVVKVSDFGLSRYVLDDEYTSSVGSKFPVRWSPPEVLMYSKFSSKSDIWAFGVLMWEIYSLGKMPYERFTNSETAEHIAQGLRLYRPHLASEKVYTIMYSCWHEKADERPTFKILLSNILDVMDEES
Description: Fluorescence polarization-based kinase assays were performed in 384 well-plate format using histidine tagged recombinant human full-length Bruton Agammaglobulinemia Tyrosine Kinase (Btk), and a modified protocol of the KinEASE™ FP Fluorescein Green Assay supplied from Millipore®. Kinase reaction were performed at room temperature for 60 minutes, in presence of 250 μM substrate, 10 μM ATP, and variable test article concentrations. The reaction was stopped with EDTA/kinease detection reagents. Phosphorylation of the substrate peptide was detected by fluorescence polarization, measured with a Tecan 500 instrument. From the dose-response curve obtained, the IC50 was calculated using Graph Pad Prisms®, using a non linear fit curve. The Km for ATP on each enzyme was experimentally determined and the Ki values calculated using the Cheng-Prusoff equation (see: Cheng Y, Prusoff W H. (1973) Relationship between the inhibition constant (K1), and the concentration of inhibitor which causes 50% inhibition (I50) of an enzymatic reaction”. Biochem Pharmacol 22 (23): 3099-108).

[2] = tested on: splenocytes; test: Splenic cell proliferation assay (anti-IgM stimulated, Cell Titer-Glo); type: cell-based; conditions: Splenocyte; CD1 mouse splenocytes, 2.5 ug/ml anti-IgM F(ab')2 for 72 h, 1 h compound pre-treatment; read-out: EC50 (nM), Inhibition of splenic cell proliferation
Description: Proliferation of splenocytes in response to anti-IgM can be blocked by inhibition of Btk. Splenocytes were obtained from 6 week old male CD1 mice (Charles River Laboratories Inc.). Mouse spleens were manually disrupted in PBS and filtered using a 70 um cell strainer followed by ammonium chloride red blood cell lysis. Cells were washed, resuspended in Splenocyte Medium (HyClone RPMI supplemented with 10% heat-inactivated FBS, 0.5× non-essential amino acids, 10 mM HEPES, 50 uM beta mercaptoethanol), and incubated at 37° C., 5% CO2 for 2 h, to remove adherent cells. Suspension cells were seeded in 96 well plates, at 50,000 cells per well, and incubated at 37° C., 5% CO2 for 1 h. Splenocytes were pre-treated in triplicate with 10,000 nM curves of Formula I, compounds for 1 h, followed by stimulation of cell proliferation with 2.5 ug/ml anti-IgM F(ab′)2 (Jackson Immuno Research) for 72 h. Cell proliferation was measured by Cell Titer-Glo Luminescent Assay (Promega). EC50 values (50% proliferation in the presence of compound, as compared to vehicle treated controls) were calculated from dose response compound curves using GraphPad Prism Software.

[3] = biological target: T2, human BTK kinase (hBTK) (Homo sapiens, UniProt Q06187); test: Btk kinase inhibition assay, Method B (KinaseProfiler radiometric protein kinase assay, Eurofins); type: biochemical; conditions: [γ-33P-ATP], 250 μM substrate, 40 minutes
T2 construct: purchased Eurofins Pharma Discovery Services UK Limited
T2 sequence (Q06187 whole entry): as above
Description: In vitro potency of selected compound was defined against human BTK kinase (hBTK) using KinaseProfiler radiometric protein kinase assays performed at Eurofins Pharma Discovery Services UK Limited.
hBTK kinase is diluted in buffer and all compounds were prepared to 50× final assay concentration in 100% DMSO. This working stock of the compound was added to the assay well as the first component in the reaction, followed by the remaining components as detailed in the assay protocol listed above. The reaction was initiated by the addition of the MgATP mix. The kinase reaction was performed at room temperature for 40 minutes, in presence of 250 μM substrate, 10 mM MgAcetate, [γ-33P-ATP] (specific activity approx. 500 cpm/pmol, concentration as required) and variable test article concentrations. The ATP concentrations in the assays were with 15 μM of the apparent. The reaction was stopped by the addition of 3% phosphoric acid solution. 10 μL of the reaction is then spotted onto a P30 filtermat and washed three times for 5 minutes in 75 mM phosphoric acid and once in methanol, prior to drying, and scintillation counting. […]

| Ki [1] | EC50 [3] | Structure (SMILES) | EC50 [2] |
| --- | --- | --- | --- |
| < 100 nM |  | Cc1ccc(COc2cc(F)cc(Oc3ccc(-n4cc(C5CCOCC5)c5ncnc(N)c54)cc3)c2)cn1 [Compound 5] | < 100 nM |
| < 100 nM |  | Cc1ncc(COc2cc(F)cc(Oc3ccc(-n4cc(C(C)C)c5ncnc(N)c54)cc3)c2)cn1 [Compound 9] | < 100 nM |
|  |  | Cc1ncc(COc2cc(F)cc(Oc3ccc(-n4cc(C5CCCC5)c5ncnc(N)c54)cc3)c2)s1 [Compound 3] | < 100 nM |
|  | < 100 nM | Cc1ncc(COc2cc(F)cc(Oc3ccc(-n4cc([C@H]5C[C@@H](O)C5)c5ncnc(N)c54)cc3)c2)cn1 [Compound 11] | < 100 nM |
| < 100 nM |  | Cc1ncc(COc2cc(F)cc(Oc3ccc(-n4cc(C5CCOCC5)c5ncnc(N)c54)cc3)c2)s1 [Compound 6] | < 100 nM |
| < 100 nM |  | Cc1ncc(COc2cc(F)cc(Oc3ccc(-n4cc(C5CCOCC5)c5ncnc(N)c54)cc3)c2)cn1 [Compound 7] | < 100 nM |
|  |  | Cc1ncc(COc2cc(F)cc(Oc3ccc(-n4cc(C5CC(CO)C5)c5ncnc(N)c54)cc3)c2)cn1 (stereo not drawn) [Compound 10] | < 100 nM |
|  |  | Cc1ccc(COc2cc(F)cc(Oc3ccc(-n4cc(C5CCCC5)c5ncnc(N)c54)cc3)c2)cn1 [Compound 4] | < 100 nM |
|  |  | Cc1ncc(COc2cc(F)cc(Oc3ccc(-n4cc(C5CCCC5)c5ncnc(N)c54)cc3)c2)cn1 [Compound 8] | < 100 nM |
| < 100 nM |  | Cc1ncc(COc2cc(F)cc(Oc3ccc(-n4cc(C(C)C)c5ncnc(N)c54)cc3)c2)s1 [Compound 2] | < 100 nM |
| < 100 nM |  | Cc1ccc(COc2cc(F)cc(Oc3ccc(-n4cc(C(C)C)c5ncnc(N)c54)cc3)c2)cn1 [Compound 1] | < 100 nM |
